The test system of experiment [1] is OkePOXs, functional fragment of OkePOX heme peroxidase from Okeania hirsuta (amino acids 117 to 659 of SEQ ID NO: 11), SEQ ID NO: 25 or 27. The following applies: KI 0.03 - 4 mM, 0.1 mM H2O2, 100 µM thymol blue, 1 µg/ml peroxidase.
Experimental: (§3) The bacterial peroxidases (HydPOX, HydPOXs, OkePOXs) were compared to LpoPOX and LspPOX under these modified conditions.
(§4) The enzymatic reactions were performed at room temperature for 30 min in clear flat-bottomed microplate wells containing 200 µl 0.1 M phosphate buffer pH 7.2, 100 µM thymol blue, 1 µg/ml of recombinant bacterial peroxidase (or commercial LpoPOX as defined in SEQ ID NO: 16), H2O2 and a reducing agent such as I^- (general assay setup).
(§5) Kinetic constants were calculated using a nonlinear regression fitting curve (Figure 9A). […] For this reason, K0.5 values are used indicating the substrate concentration at which half maximal velocity/half-saturation is achieved.
Experiment [2] deals with LspPOX, peroxidase from Lyngbya sp. (strain PCC 8106), mature protein amino acids 117-661 of SEQ ID NO: 12. Kind of experiment: Thymol blue assay (halogenation assay), kinetics at 0.1 mM H2O2 (Example 13). It counts as biochemical, Lyngbya sp. PCC 8106. Conditions: KI 0.03 - 4 mM, 0.1 mM H2O2, 100 µM thymol blue, 1 µg/ml peroxidase.
Experimental: as §3, §4, §5
Experiment [3] concerns HydPOXs, HydPOX peroxidase without proregion (amino acids 117 to 659 of SEQ ID NO: 1), SEQ ID NO: 18. Conditions: KI 0.03 - 4 mM, 0.1 mM H2O2, 100 µM thymol blue, 1 µg/ml peroxidase, 0.1 M phosphate buffer pH 7.2, room temperature (Example 13).
Experimental: as §3, §4, §5
For experiment [4], the target named is T1, LpoPOX, bovine lactoperoxidase, commercial protein, SEQ ID NO: 16 (lacks the propeptide region) (Bos taurus, UniProt P80025).
T1 construct: purchased
Kind of experiment: Thymol blue assay (halogenation assay), kinetics at 0.1 mM H2O2 (Example 13). It counts as biochemical. Conditions: KI 0.03 - 4 mM, 0.1 mM H2O2, 100 µM thymol blue, 1 µg/ml peroxidase.
Experimental: as §3, §4, §5

Experiment [5] deals with LspPOX, peroxidase from Lyngbya sp. (strain PCC 8106), mature protein amino acids 117-661 of SEQ ID NO: 12. Conditions: ABTS 0.025 - 5 mM, 6.45 nM peroxidase, 100 µM H2O2, 50 mM sodium acetate buffer pH 5.0, 25 °C (Example 12). The method, then:
(§1) The assays were performed in triplicates on a TECAN microtiter plate reader in a total of 200 µL. […] The oxidation reaction was read for 30 min at 25 °C.

The subject of experiment [6] is HydPOXs, HydPOX peroxidase without proregion (amino acids 117 to 659 of SEQ ID NO: 1), SEQ ID NO: 18. Conditions: ABTS 0.025 - 5 mM, 6.45 nM peroxidase, 100 µM H2O2, 50 mM sodium acetate buffer pH 5.0, 25 °C (Example 12). How it is done: as §1
The subject of experiment [7] is LspPOX, peroxidase from Lyngbya sp. (strain PCC 8106), mature protein amino acids 117-661 of SEQ ID NO: 12. Conditions: ABTS 0.025 - 10 mM, 10 nM peroxidase, H2O2, 50 mM phosphate buffer pH 6.0, 25 °C (Example 4). How it is done:
(§2) The reaction in presence of H2O2 can be easily measured on microplate reader.
The oxidation reaction was read for 30 min at 25 °C. […] The concentration of the added H2O2 solution was 200 µM.

Experiment [8] has the same test system. The following applies: ABTS 0.025 - 10 mM, 10 nM peroxidase, 100 µM H2O2, 50 mM phosphate buffer pH 6.0, 25 °C, optimized fitting (Example 4.1). The method, then: as §2
The oxidation reaction was read for 30 min at 25 °C.

The mark [9] stands for this setting: 0.1 M phosphate buffer pH 7.2, room temperature (Example 13).
[10] abbreviates: 0.1 M phosphate buffer pH 7.2, room temperature, sigmoidal fitting (Example 13), 30 min, read-out: K0.5.

Like-named read-outs stand apart in the source and are kept apart here.

Consider `[I-].[K+]` [KI, potassium iodide], for which the kcat in experiment [1] (setting [9]) worked out at 13.7 s⁻¹; in experiment [2] (setting [9]), 14.7 s⁻¹; in experiment [3], 10.6 s⁻¹; in experiment [4] (setting [9]), 16.5 s⁻¹. For the same compound, the kcat/K0.5 in experiment [1] (setting [9]) is 118600 M⁻¹ s⁻¹; in experiment [2] (setting [9]) it was 10600 M⁻¹ s⁻¹; in experiment [3], 85100 M⁻¹ s⁻¹; in experiment [4] (setting [9]), 12500 M⁻¹ s⁻¹. For the same compound, the Km amounted to 120 µM in experiment [1] (read-out: K0.5, 0.1 M phosphate buffer pH 7.2, room temperature, sigmoidal fitting (Example 13), 30 min); 1390 µM in experiment [2] (setting [10]); 1320 µM in experiment [4] (setting [10]).
Consider `CCn1c(=NN=c2sc3cc(S(=O)(=O)O)ccc3n2CC)sc2cc(S(=O)(=O)O)ccc21` [ABTS, 2,2'-azino-bis (3-ethylbenzothiazoline-6-sulfonic acid)], for which the Km in experiment [5] is 1090 µM; in experiment [7] it was 237 µM; in experiment [8], 180 µM. The kcat is 57 s^1 in experiment [5], 95 s^1 in experiment [6], 7,45 s^-1 in experiment [7] and 6.3 s⁻¹ in experiment [8].
